According to patent US20070243264A1, “Thickened Dilute Hypochlorite” (priority 2006, published 2007):
Like-named read-outs stand apart in the source and are kept apart here.

Key:
[1] = Gel formation of hypochlorite thickened with Laponite with added buffers; conditions: 200 ppm hypochlorite thickened with Laponite; for gel formation: acid added, amount not stated
[2] = Effect of thickeners on stability of dilute hypochlorite; assay type: physicochemical
Description: The amount of available halogen oxidant in the composition is determined by placing samples of the composition into about 50 milliliters of distilled water, followed by addition of about 10 milliliters of a 10 weight/weight percent solution of potassium iodide and addition of about 10 milliliters of a 10 volume percent solution of sulfuric acid, the resulting mixture being well stirred. The resulting yellow to brown solution, whose color is the result of oxidation of free iodine ion (I^−) to molecular iodine (I2), was then volumetrically titrated to an essentially colorless endpoint by addition of standardized 0.1 Molar sodium thiosulfate (Na2S2O3) titrant. Calculation then expresses the result as percent of available molecular chlorine (Cl2), that is to say assigning two equivalents per mole of titrated hypohalite oxidant. Stability results are then expressed by repeated assays over time using identically prepared samples resulting from the same composition, normalized to 100 percent representative of the starting available chlorine measured initially.

OB(O)O [Boric acid]
gel ([1]; buffer Wt. % 0.21, pH 8.5): Yes
gel ([1]; buffer Wt. % 0.41, pH 8.4): Yes

O=C(O)CCC(=O)O [Succinic acid]
gel ([1]; buffer Wt. % 0.01, pH 9.2): Yes
gel ([1]; buffer Wt. % 0.04, pH 8.2): Viscous liquid

CC(=O)O [acetic acid]
gel formation [1]: Gels

Cl [hydrochloric acid]
gel formation [1]: Gels

CCCCCCCCCCCCOS(=O)(=O)[O-].[Na+] [sodium lauryl sulfate]
stability of dilute hypochlorite with surfactant, compared with Vangel ES ([2]; comparison with thickeners of Table 4): less stable than Vangel ES®

CCCCCCCCS(=O)(=O)[O-].[Na+] [sodium octyl sulfonate]
stability of dilute hypochlorite with surfactant, compared with Vangel ES [2]: less stable than Vangel ES®

CCCCCCCCCCCCCCCC[N+](C)(C)C.[Cl-] [trimethylC16 ammonium chloride]
stability of dilute hypochlorite with surfactant, compared with Vangel ES [2]: less stable than Vangel ES®

sodium alkylbenzenesulfonate
stability of dilute hypochlorite with surfactant, compared with Vangel ES [2]: less stable than Vangel ES®
